± gives the standard deviation of the averaged measurements.
Key:
Test in all cases: level (log10 ratio to DMSO vehicle control); higher = higher biomarker level / cell amount than vehicle control
[1] = compound: FC(F)(I)C(F)(F)C(F)(F)C(F)(F)C(F)(F)C(F)(F)I [1,6-Diiodoperfluorohexane]; details: 6700 nM; in DMSO
Experimental: (§1)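 BioMAP Diversity Plus panel of 12 human primary cell co-culture systems (3C, 4H, LPS, SAg, BT, BF4T, BE3C, CASM3C, HDF3CGF, KF3CT, MyoF, Mphg). Compounds were added 1 h before stimulation and left for 24 h (MyoF 48 h; BT 72 h for soluble read-outs or 6 d for IgG). Biomarkers were read by ELISA, cytotoxicity by SRB, PBMC viability and proliferation by Alamar Blue. Each well value was divided by the mean of 8 DMSO control wells on the same plate and log10 transformed; duplicate blinded samples were tested at 4 concentrations.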

[2] = compound: OCCCC(F)(F)C(F)(F)C(F)(F)C(F)(F)C(F)(F)C(F)(F)C(F)(F)C(F)(F)F [3-(Perfluorooctyl)propanol]; details: 6700 nM; in DMSO
Experimental: as §1

[3] = compound: OCCCCC(F)(F)C(F)(F)C(F)(F)C(F)(F)F [4:4 Fluorotelomer alcohol]; details: in DMSO
Experimental: as §1

[4] = compound: OCC(F)(F)C(F)(F)C(F)(F)C(F)(F)C(F)(F)C(F)(F)C(F)(F)C(F)(F)C(F)(F)C(F)(F)C(F)(F)F [11:1 Fluorotelomer alcohol]; details: in DMSO
Experimental: as §1

[5] = compound: O=C(Cl)C(F)(F)C(F)(F)C(F)(F)C(=O)Cl [Hexafluoroglutaryl chloride]; details: in DMSO
Experimental: as §1

[6] = compound: O=C(CC(=O)C(F)(F)C(F)(F)C(F)(F)F)c1cccs1 [(Perfluorobutyryl)-2-thenoylmethane]; details: in DMSO
Experimental: as §1

Tetrafluorosuccinic acid = compound: O=C(O)C(F)(F)C(F)(F)C(=O)O [Tetrafluorosuccinic acid]; details: in DMSO
Experimental: as §1

[7] = compound: C=CC(=O)OCC(F)(F)C(F)(F)C(F)(F)C(F)(F)COC(=O)C=C [1H,1H,6H,6H-Perfluorohexane-1,6-diol diacrylate]; details: 6700 nM; in DMSO
Experimental: as §1

Perfluorooctanoic acid = compound: O=C(O)C(F)(F)C(F)(F)C(F)(F)C(F)(F)C(F)(F)C(F)(F)C(F)(F)F [Perfluorooctanoic acid]; details: in DMSO
Experimental: as §1

| Test System | level (log10) [1] | level (log10) [2] | level (log10) ([3]; 6700 nM) | level (log10) ([3]; 20000 nM) | level (log10) ([3]; 60000 nM) | level (log10) ([4]; 1100 nM) | level (log10) ([4]; 3300 nM) | level (log10) ([4]; 10000 nM) | level (log10) ([5]; 6700 nM) | level (log10) ([5]; 20000 nM) | level (log10) ([5]; 60000 nM) | level (log10) ([6]; 6700 nM) | level (log10) ([6]; 20000 nM) | level (log10) (Tetrafluorosuccinic acid; 6700 nM) | level (log10) (Tetrafluorosuccinic acid; 20000 nM) | level (log10) (Tetrafluorosuccinic acid; 60000 nM) | level (log10) [7] | level (log10) (Perfluorooctanoic acid; 6700 nM) | level (log10) (Perfluorooctanoic acid; 20000 nM) | level (log10) (Perfluorooctanoic acid; 60000 nM) |
| --- | --- | --- | --- | --- | --- | --- | --- | --- | --- | --- | --- | --- | --- | --- | --- | --- | --- | --- | --- | --- |
| CASM3C:CD142/Tissue Factor | 0.001 | -0.007 ± 0.054 | -0.0265 ± 0.015 | -0.0055 ± 0.0064 | 0.0285 ± 0.018 | -0.013 ± 0.02 | -0.0225 ± 0.016 | -0.038 ± 0.02 | -0.0245 ± 0.028 | -0.0635 ± 0.037 | -0.0395 ± 0.035 | -0.144 ± 0.013 | -0.105 ± 0.021 | -0.0165 ± 0.026 | -0.0345 ± 0.00071 | -0.025 ± 0.024 | -0.004 ± 0.059 | -0.0055 ± 0.039 | -0.008 ± 0.048 | -0.0345 ± 0.061 |
| HDF3CGF:MMP-1 | -0.303 | -0.0315 ± 0.044 | -0.008 ± 0.0028 | 0.006 ± 0.0014 | 0.004 ± 0.0042 | -0.011 ± 0.0057 | -0.042 ± 0.0014 | -0.0255 ± 0.035 | 0.0195 ± 0.012 | 0.013 ± 0.0042 | 0.018 | -0.0195 ± 0.0092 | -0.0935 ± 0.0078 | 0.0295 ± 0.015 | 0.0315 ± 0.021 | 0.0195 ± 0.022 | 0.0075 ± 0.0021 | -0.0155 ± 0.0064 | -0.048 ± 0.0085 | -0.035 ± 0.023 |
| MyoF:Collagen I | -0.444 | -0.046 ± 0.024 | 0.004 ± 0.0014 | -0.002 ± 0.016 | 0.0065 ± 0.026 | 0.051 ± 0.047 | 0.0475 ± 0.021 | 0.0435 ± 0.013 | 0.004 ± 0.013 | -0.0005 ± 0.025 | 0.0145 ± 0.00071 | -0.0255 ± 0.037 | -0.128 ± 0.033 | 0.0045 ± 0.0021 | 0.007 ± 0.0014 | 0.0005 ± 0.012 | -0.01 ± 0.052 | -0.0065 ± 0.0092 | -0.0035 ± 0.036 | -0.034 ± 0.017 |
| lMphg:CD106/VCAM-1 | -0.025 | 0.001 ± 0.0099 | -0.0195 ± 0.005 | -0.0045 ± 0.019 | -0.0025 ± 0.042 | 0.0045 ± 0.005 | -0.001 ± 0.0014 | -0.0015 ± 0.0035 | -0.0075 ± 0.0078 | -0.0015 ± 0.037 | -0.0145 ± 0.042 | -0.006 ± 0.0057 | -0.0715 ± 0.036 | -0.017 ± 0.0028 | 0.0085 ± 0.0021 | 0.018 ± 0.03 | -0.0445 ± 0.018 | 0.0065 ± 0.0078 | 0.0065 ± 0.011 | 0.0025 ± 0.0092 |
| lMphg:CCL2/MCP-1 | -0.029 | 0.0035 ± 0.016 | -0.0295 ± 0.037 | -0.0145 ± 0.00071 | 0.009 ± 0.0071 | 0.0125 ± 0.0078 | 0.0295 ± 0.035 | 0.0535 ± 0.0021 | -0.005 ± 0.0099 | -0.0025 ± 0.019 | 0.0125 ± 0.015 | -0.047 ± 0.031 | -0.27 ± 0.056 | -0.03 ± 0.016 | -0.0195 ± 0.012 | 0.0005 ± 0.042 | -0.04 ± 0.061 | 0.018 ± 0.0071 | 0.036 ± 0.0028 | 0.025 ± 0.025 |
| 3C:CD54/ICAM-1 | 0.03 | 0.0095 ± 0.0064 | 0 ± 0.037 | -0.017 ± 0.041 | -0.002 ± 0.047 | 0.011 ± 0.03 | 0.0305 ± 0.028 | 0.0385 ± 0.018 | 0.002 ± 0.0014 | -0.006 ± 0.013 | 0.0025 ± 0.035 | -0.027 ± 0.021 | -0.0365 ± 0.00071 | -0.0015 ± 0.0092 | -0.016 ± 0.011 | 0.001 ± 0.0028 | -0.028 ± 0.0085 | -0.0145 ± 0.0035 | -0.007 ± 0.0042 | 0.0185 ± 0.0078 |
| CASM3C:HLA-DR | -0.006 | -0.0215 ± 0.005 | -0.0045 ± 0.019 | -0.015 ± 0.0042 | 0.019 ± 0.027 | 0.0075 ± 0.016 | 0.0015 ± 0.00071 | 0.0095 ± 0.0035 | -0.0095 ± 0.0035 | -0.0025 ± 0.033 | 0.002 ± 0.0057 | -0.018 ± 0.0042 | -0.0365 ± 0.022 | -0.005 ± 0.0099 | -0.0145 ± 0.013 | 0.0015 ± 0.0064 | -0.008 ± 0.12 | 0.0045 ± 0.015 | -0.0045 ± 0.0021 | -0.0045 ± 0.043 |
| HDF3CGF:CXCL11/I-TAC | -0.434 | -0.367 ± 0.096 | 0.0075 ± 0.0078 | 0.0205 ± 0.0092 | -0.001 ± 0.014 | -0.0245 ± 0.03 | -0.0655 ± 0.005 | -0.0155 ± 0.04 | -0.015 ± 0.0057 | -0.0145 ± 0.022 | -0.0085 ± 0.013 | -0.014 ± 0.013 | -0.114 ± 0.0092 | -0.03 ± 0.035 | -0.0215 ± 0.005 | -0.0565 ± 0.071 | -0.574 ± 0.078 | -0.0205 ± 0.011 | -0.016 ± 0.027 | -0.007 ± 0.024 |
| 3C:CCL2/MCP-1 | 0.01 | 0.003 ± 0.013 | 0.004 ± 0.014 | -0.0205 ± 0.011 | -0.0105 ± 0.037 | -0.0005 ± 0.0064 | -0.007 ± 0.021 | 0.003 ± 0.04 | 0.009 ± 0.0028 | -0.0105 ± 0.035 | 0.009 ± 0.065 | -0.0145 ± 0.013 | -0.166 ± 0.0085 | -0.0065 ± 0.016 | -0.006 ± 0.0028 | 0.0005 ± 0.0064 | 0.025 ± 0.044 | 0.0055 ± 0.016 | 0.008 ± 0.0071 | 0.04 ± 0.034 |
| lMphg:M-CSF | -0.023 | -0.0255 ± 0.00071 | -0.0185 ± 0.019 | -0.0095 ± 0.0035 | 0.0105 ± 0.042 | -0.0045 ± 0.005 | -0.0195 ± 0.0078 | -0.0735 ± 0.016 | 0.011 | -0.021 ± 0.031 | 0.018 ± 0.011 | -0.0285 ± 0.0021 | -0.072 ± 0.0085 | -0.005 ± 0.018 | -0.0105 ± 0.0092 | 0.019 ± 0.03 | -0.0105 ± 0.015 | -0.007 ± 0.0042 | 0.0105 ± 0.019 | 0.0185 ± 0.029 |
| KF3CT:IL-1alpha | -0.073 | -0.0985 ± 0.012 | 0.0145 ± 0.029 | 0.005 ± 0.042 | 0.019 ± 0.03 | 0.0015 ± 0.028 | -0.0425 ± 0.0064 | -0.021 ± 0.011 | -0.0085 ± 0.0078 | 0.0095 ± 0.013 | -0.012 ± 0.018 | 0.0165 ± 0.005 | 0.009 ± 0.0028 | -0.012 ± 0.0042 | -0.0385 ± 0.019 | 0.007 ± 0.023 | -0.0545 ± 0.035 | 0.018 ± 0.0057 | 0.012 ± 0.0014 | -0.0395 ± 0.0035 |
| BE3C:SRB | -0.005 | -0.002 ± 0.0028 | -0.0065 ± 0.0035 | -0.0035 ± 0.005 | 0.0015 ± 0.016 | -0.03 ± 0.014 | -0.0485 ± 0.005 | -0.0235 ± 0.0064 | 0.0045 ± 0.0092 | 0.0065 ± 0.013 | 0.0115 ± 0.0035 | -0.02 ± 0.0071 | -0.031 ± 0.0071 | -0.0045 ± 0.005 | -0.0045 ± 0.0064 | -0.001 ± 0.0028 | -0.006 ± 0.0028 | -0.0065 ± 0.00071 | -0.0025 ± 0.0021 | -0.014 ± 0.0099 |
| 3C:CD106/VCAM-1 | -0.043 | -0.021 | -0.01 ± 0.0057 | -0.01 ± 0.016 | -0.0015 ± 0.0035 | 0.008 ± 0.016 | 0.007 | 0.022 ± 0.0099 | -0.03 ± 0.021 | -0.028 ± 0.035 | -0.018 ± 0.02 | -0.027 ± 0.0071 | -0.089 ± 0.0099 | -0.015 ± 0.014 | -0.015 ± 0.011 | -0.0105 ± 0.018 | -0.058 ± 0.0071 | -0.0435 ± 0.053 | -0.0325 ± 0.05 | -0.013 ± 0.067 |
